Test results as given in patent publication US4579940A, “14-de(hydroxymethyl)-mycaminosyltylonolide derivatives” (Toyo Jozo Kabushiki Kaisha, priority 1983, dated 1986).
Converted amounts (≈) assume the structure as drawn. Read-outs that look alike come from different tables or passages of the source.

Tests used:
Assay type in all cases: cell-based
[1] = system: Staph epidermidis ap-al-l; experiment: minimum inhibitory concentration (MIC), Staph epidermidis
[2] = system: Strept. pyogenes 1022; experiment: minimum inhibitory concentration (MIC), Strept. pyogenes 1022*; settings: Streptococcus pyogenes, macrolide-antibiotics resistant
From the text: (§1) In Table 1, the abbreviations have the following meanings:
(§2) The test organisms were macrolide-antibiotics resistant A-group stains (clinical isolates of strains resistant to erythromycin, olenadomycin and 16-membered macrolide antibiotics).

[3] = system: Proteus vulgaris OX19; experiment: minimum inhibitory concentration (MIC), Proteus vulgaris OX19
[4] = system: Strept. agalactiae 1020; experiment: minimum inhibitory concentration (MIC), Strept. agalactiae 1020; settings: Streptococcus agalactiae
[5] = system: Staph. aureus MS353; experiment: minimum inhibitory concentration (MIC), Staph. aureus MS353; settings: Staphylococcus aureus
[6] = system: Staph. aureus ATCC6538P; experiment: minimum inhibitory concentration (MIC), Staph. aureus ATCC6538P; settings: Staphylococcus aureus
[7] = system: Serratia marcescens; experiment: minimum inhibitory concentration (MIC), Serratia marcescens
[8] = system: Strept. pyogenes N.Y.5; experiment: minimum inhibitory concentration (MIC), Strept. pyogenes N.Y.5; settings: Streptococcus pyogenes
From the text: In Table 1, the abbreviations have the following meanings: […]

[9] = system: Kleb. pneumoniae ATCC10031; experiment: minimum inhibitory concentration (MIC), Kleb. pneumoniae ATCC10031; settings: Klebsiella pneumoniae
[10] = system: Strept. faecalis 1501; experiment: minimum inhibitory concentration (MIC), Strept. faecalis 1501; settings: Enterococcus faecalis
[11] = system: E. coli NIHJ-JC2; experiment: minimum inhibitory concentration (MIC), E. coli NIHJ-JC2; settings: Escherichia coli, NIHJJC2
[12] = system: Staph. aureus MS353C36; experiment: minimum inhibitory concentration (MIC), Staph. aureus MS353C36*; settings: Staphylococcus aureus, macrolide-antibiotics resistant
From the text: as §1, §2

[13] = Staph epidermidis ap-al-l, read-out: MIC

SMILES | MIC [1, 13] | MIC [2] | MIC [3] | MIC [4] | MIC [5] | MIC [6] | MIC [7] | MIC [8] | MIC [9] | MIC [10] | MIC [11] | MIC [12] | MIC [1]
CCC1OC(=O)CC(O)C(C)C(OC2OC(C)C(OC(C)=O)C(N(C)C)C2OC(C)=O)C(CC(OC)OC)CC(C)C(=O)C=CC(C)=CC1CO (stereo not drawn) [A, 2',4'-di-O-acetyl-O-mycaminosyltylonolide dimethylacetal] | 0.1 µg/mL (≈ 0.137 µM) | > 100 µg/mL | 6.3 µg/mL (≈ 8.66 µM) | ≤ 0.05 µg/mL | 0.2 µg/mL (≈ 0.275 µM) | 0.2 µg/mL (≈ 0.275 µM) | 12.5 µg/mL (≈ 17.2 µM) | ≤ 0.05 µg/mL | 1.6 µg/mL (≈ 2.2 µM) | 0.2 µg/mL (≈ 0.275 µM) | 25 µg/mL (≈ 34.3 µM) | – | –
CCC1CC=C(C)C=CC(=O)C(C)CC(CC=O)C(OC2OC(C)C(O)C(N(C)C)C2O)C(C)C(O)CC(=O)O1 (stereo not drawn) [C, 14-de(hydroxymethyl)-O-mycaminosyltylonolide] | ≤ 0.05 µg/mL | > 100 µg/mL | – | ≤ 0.05 µg/mL | ≤ 0.05 µg/mL | ≤ 0.05 µg/mL | – | ≤ 0.05 µg/mL | – | 0.1 µg/mL (≈ 0.176 µM) | – | ≤ 0.05 µg/mL | –
CCC1OC(=O)CC(O)C(C)C(OC2OC(C)CC(N(C)C)C2OC(C)=O)C(CC=O)CC(C)C(=O)C=CC(C)=CC1CO (stereo not drawn) [D, 2'-O-acetyl-4'-deoxy-O-mycaminosyltylonolide] | ≤ 0.05 µg/mL | > 100 µg/mL | – | ≤ 0.05 µg/mL | 0.2 µg/mL (≈ 0.321 µM) | 0.2 µg/mL (≈ 0.321 µM) | – | ≤ 0.05 µg/mL | – | 0.2 µg/mL (≈ 0.321 µM) | – | 0.2 µg/mL (≈ 0.321 µM) | –
CCC1OC(=O)CC(O)C(C)C(OC2OC(C)CC(N(C)C)C2OC(C)=O)C(CC(OC)OC)CC(C)C(=O)C=CC(C)=CC1CO (stereo not drawn) [E, 2'-O-acetyl-4'-deoxy-O-mycaminosyltylonolide dimethylacetal] | ≤ 0.05 µg/mL | > 100 µg/mL | – | ≤ 0.05 µg/mL | 0.1 µg/mL (≈ 0.149 µM) | 0.1 µg/mL (≈ 0.149 µM) | – | ≤ 0.05 µg/mL | – | ≤ 0.05 µg/mL | – | 0.1 µg/mL (≈ 0.149 µM) | –
CC[C@H]1OC(=O)[C@H](C)[C@@H](O[C@H]2C[C@@](C)(OC)[C@@H](O)[C@H](C)O2)[C@H](C)[C@@H](O[C@@H]2O[C@H](C)C[C@H](N(C)C)[C@H]2O)[C@](C)(O)C[C@@H](C)C(=O)[C@H](C)[C@@H](O)[C@]1(C)O [EM, erythromycin, reference compound] | – | > 100 µg/mL | – | ≤ 0.05 µg/mL | 0.2 µg/mL (≈ 0.273 µM) | 0.2 µg/mL (≈ 0.273 µM) | – | ≤ 0.05 µg/mL | – | – | – | > 100 µg/mL | 0.1 µg/mL (≈ 0.136 µM)
CCC1CC=C(C)C=CC(=O)C(C)CC(CC=O)C(OC2OC(C)CC(N(C)C)C2O)C(C)C(O)CC(=O)O1 (stereo not drawn) [F, 14-de(hydroxymethyl)-4'-deoxy-O-mycaminosyltylonolide] | ≤ 0.05 µg/mL | > 100 µg/mL | – | ≤ 0.05 µg/mL | 0.1 µg/mL (≈ 0.181 µM) | 0.1 µg/mL (≈ 0.181 µM) | – | ≤ 0.05 µg/mL | – | 0.2 µg/mL (≈ 0.363 µM) | – | 0.2 µg/mL (≈ 0.363 µM) | –
CCC1OC(=O)CC(O)C(C)C(OC2OC(C)C(O)C(N(C)C)C2O)C(CC=O)CC(C)C(=O)C=CC(C)=CC1C(=O)OC(C)C (stereo not drawn) [G, 14-isopropyloxycarbonyl-14-de(hydroxymethyl)-O-mycaminosyltylonolide] | 0.2 µg/mL (≈ 0.306 µM) | > 100 µg/mL | – | ≤ 0.05 µg/mL | 0.4 µg/mL (≈ 0.612 µM) | 0.4 µg/mL (≈ 0.612 µM) | – | ≤ 0.05 µg/mL | – | 0.2 µg/mL (≈ 0.306 µM) | – | 0.8 µg/mL (≈ 1.22 µM) | –
CCOC(=O)C1C=C(C)C=CC(=O)C(C)CC(CC=O)C(OC2OC(C)C(O)C(N(C)C)C2O)C(C)C(O)CC(=O)OC1CC (stereo not drawn) [H, 14-ethyloxycarbonyl-14-de(hydroxymethyl)-O-mycaminosyltylonolide] | 0.1 µg/mL (≈ 0.156 µM) | > 100 µg/mL | – | ≤ 0.05 µg/mL | 0.2 µg/mL (≈ 0.313 µM) | 0.2 µg/mL (≈ 0.313 µM) | – | ≤ 0.05 µg/mL | – | ≤ 0.05 µg/mL | – | 0.4 µg/mL (≈ 0.625 µM) | –
CC[C@H]1OC(=O)C[C@@H](O)[C@H](C)[C@@H](O[C@@H]2O[C@H](C)[C@@H](O[C@H]3C[C@@](C)(O)[C@@H](O)[C@H](C)O3)[C@H](N(C)C)[C@H]2O)[C@@H](CC=O)C[C@@H](C)C(=O)/C=C/C(C)=C/[C@@H]1CO[C@@H]1O[C@H](C)[C@@H](O)[C@@H](OC)[C@H]1OC [TS, tylosin, reference compound] | – | > 100 µg/mL | – | 0.4 µg/mL (≈ 0.437 µM) | – | – | – | – | – | 1.6 µg/mL (≈ 1.75 µM) | > 100 µg/mL | > 100 µg/mL | 0.4 µg/mL (≈ 0.437 µM)
